According to US20080103205A1, “Pesticidal compositions and methods of use” (priority 2006, published 2008):
Read-outs that look alike come from different tables or passages of the source.

How the values were obtained:
H. bacteriophora = experiment: Initial petri dish toxicity assay / preliminary studies, H. bacteriophora; format: in vivo, Heterorhabditis bacteriophora; conditions: initial petri dish assays / preliminary studies
From the text: (§1) The stilbene nucleus is a simple chemical scaffold, and excellent gains in potency can be envisioned from appropriate chemical modification. In addition, other compounds having a similar mode of action have been described, including NPPB, IAA-94, and 9-AC (FIGS. 1-3). This Example 1 describes further toxicity studies with these compounds.
This broad cross resistance supports a role for AT blockers in the action of these compounds.

Caenorhabditis elegans = experiment: Toxicity test, adult Caenorhabditis elegans, 96 well micro plate; format: in vivo; conditions: for mortality at 50 ppm / mortality at 100 ppm / mortality at 200 ppm / mortality at 300 ppm / mortality at 400 ppm: Caenorhabditis elegans
Summary of the method: (§2)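 J2 juveniles came from infested tomato roots and adults from culture plates, 17–30 per well, exposed to 50–400 ppm in 0.2% DMSO/tap water at room temperature. Mortality, including worms motionless for 30 sec, was scored at 24, 48, 72, 120 and 168 hr. Five replicates were Abbott-corrected against solvent control, and LC50 was estimated by probit analysis.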

M. incognita = experiment: Initial petri dish toxicity assay, M. incognita; format: in vivo; conditions: Meloidogyne incognita; 100 ppm for 24 hr
From the text: as §1

Meloidogyne incognita = experiment: Toxicity test, J2 juveniles of Meloidogyne incognita, 96 well micro plate; format: in vivo; conditions: for mortality at 50 ppm / mortality at 100 ppm / mortality at 200 ppm / mortality at 300 ppm / mortality at 400 ppm: Meloidogyne incognita
Summary of the method: as §2

Drosophila melanogaster = experiment: Toxicity against adult Drosophila melanogaster, sugar solution feeding; format: in vivo
Experimental: Toxicity tests were conducted using mixed sex adults of D. melanogaster maintained on artificial diet in the department of entomology, Virginia Tech. Test concentrations of 6.25, 12.5, 25, 50 or 100 ppm were prepared in 0.2% dimethyl sulfoxide (DMSO) for DIDS, 9-AC, NPPB, and IAA-94. The above final concentrations were obtained after mixing them in 10 ml of 10% sugar solution. Similar preparations with 0.2% DMSO alone served as controls. One end of a cotton wick was dipped in 0.5 ml of sugar solution and placed on the glass vial containing 10 adult flies of mixed sex. Each concentration of test chemical had 5 replications. Mortality counts of flies were taken 24, 48, and 72 hrs after treatment. Insects without movement upon probing were considered dead. LC50 values and confidence intervals for each chemical were estimated using POLO PLUS software program. The data provided in Tables 3-A and 3-B below confirm that AT blockers are toxic to insects in acute exposures.

[1] = 24 hr, read-out: Corrected Mortality (%)
[2] = 48 hr, read-out: Corrected Mortality (%)
[3] = 72 hr, read-out: Corrected Mortality (%)
[4] = 120 hr, read-out: Corrected Mortality (%)
[5] = 120 hr, read-out: Mortality (%)
[6] = 168 hr, read-out: Corrected Mortality (%)
[7] = 168 hr, read-out: Mortality (%)

For `O=S(=O)(O)c1cc(N=C=S)ccc1/C=C/c1ccc(N=C=S)cc1S(=O)(=O)O` [DIDS, trans-4,4′-diisothiocyanatostilbene-2,2′-disulfonic acid, reference compound], the “paralytic/lethal effect, sensitivity” value (H. bacteriophora) was “less sensitive”, the mortality at 50 ppm (Caenorhabditis elegans; [1]) was 14% and the mortality at 50 ppm (Caenorhabditis elegans; 24 hr, read-out: Mortality (%)) was 16%. For the same molecule, the mortality at 50 ppm (Caenorhabditis elegans; [2]) was 34%, the mortality at 50 ppm (Caenorhabditis elegans; 48 hr, read-out: Mortality (%)) was 36% and the mortality at 50 ppm (Caenorhabditis elegans; [3]) was 56%. It also gave a mortality at 50 ppm (Caenorhabditis elegans; 72 hr, read-out: Mortality (%)) of 58%, a mortality at 50 ppm (Caenorhabditis elegans; [4]) of 74% and a mortality at 50 ppm (Caenorhabditis elegans; [5]) of 76%. It also gave a mortality at 50 ppm (Caenorhabditis elegans; [6]) of 98%, a mortality at 50 ppm (Caenorhabditis elegans; [7]) of 98% and a mortality at 100 ppm (Caenorhabditis elegans; [1]) of 18%. The mortality at 100 ppm (Caenorhabditis elegans; 24 hr, read-out: Mortality (%)) was 20%, the mortality at 100 ppm (Caenorhabditis elegans; [2]) was 43% and the mortality at 100 ppm (Caenorhabditis elegans; 48 hr, read-out: Mortality (%)) was 45%. It also gave a mortality at 100 ppm (Caenorhabditis elegans; [3]) of 68%, a mortality at 100 ppm (Caenorhabditis elegans; 72 hr, read-out: Mortality (%)) of 69% and a mortality at 100 ppm (Caenorhabditis elegans; [4]) of 88%. The mortality at 100 ppm (Caenorhabditis elegans; [5]) was 89%, the mortality at 100 ppm (Caenorhabditis elegans; [6]) was 100% and the mortality at 100 ppm (Caenorhabditis elegans; [7]) was 100%. For the same molecule, the mortality at 200 ppm (Caenorhabditis elegans; [1]) was 22%, the mortality at 200 ppm (Caenorhabditis elegans; 24 hr, read-out: Mortality (%)) was 24% and the mortality at 200 ppm (Caenorhabditis elegans; [2]) was 44%. For the same molecule, the mortality at 200 ppm (Caenorhabditis elegans; 48 hr, read-out: Mortality (%)) was 46%, the mortality at 200 ppm (Caenorhabditis elegans; [3]) was 77% and the mortality at 200 ppm (Caenorhabditis elegans; 72 hr, read-out: Mortality (%)) was 77%. For the same molecule, the mortality at 200 ppm (Caenorhabditis elegans; [4]) was 97%, the mortality at 200 ppm (Caenorhabditis elegans; [5]) was 97% and the mortality at 200 ppm (Caenorhabditis elegans; [6]) was 100%. For the same molecule, the mortality at 200 ppm (Caenorhabditis elegans; [7]) was 100%, the mortality at 300 ppm (Caenorhabditis elegans; [1]) was 20% and the mortality at 300 ppm (Caenorhabditis elegans; 24 hr, read-out: Mortality (%)) was 22%. The mortality at 300 ppm (Caenorhabditis elegans; [2]) was 52%, the mortality at 300 ppm (Caenorhabditis elegans; 48 hr, read-out: Mortality (%)) was 53% and the mortality at 300 ppm (Caenorhabditis elegans; [3]) was 81%. It also gave a mortality at 300 ppm (Caenorhabditis elegans; 72 hr, read-out: Mortality (%)) of 83%, a mortality at 300 ppm (Caenorhabditis elegans; [4]) of 100% and a mortality at 300 ppm (Caenorhabditis elegans; [5]) of 99%. The mortality at 300 ppm (Caenorhabditis elegans; [6]) was 100%, the mortality at 300 ppm (Caenorhabditis elegans; [7]) was 100% and the mortality at 400 ppm (Caenorhabditis elegans; [1]) was 23%. The mortality at 400 ppm (Caenorhabditis elegans; 24 hr, read-out: Mortality (%)) was 25%, the mortality at 400 ppm (Caenorhabditis elegans; [2]) was 58% and the mortality at 400 ppm (Caenorhabditis elegans; 48 hr, read-out: Mortality (%)) was 59%. For the same molecule, the mortality at 400 ppm (Caenorhabditis elegans; [3]) was 90%, the mortality at 400 ppm (Caenorhabditis elegans; 72 hr, read-out: Mortality (%)) was 90% and the mortality at 400 ppm (Caenorhabditis elegans; [4]) was 100%. For the same molecule, the mortality at 400 ppm (Caenorhabditis elegans; [5]) was 100%, the mortality at 400 ppm (Caenorhabditis elegans; [6]) was 100% and the mortality at 400 ppm (Caenorhabditis elegans; [7]) was 100%. The “LC50 (ppm)” value (Caenorhabditis elegans; Day 2) was 237 ppm, the “LC50 (ppm)” value (Caenorhabditis elegans; Day 3) was 38 ppm and the “LC50 (ppm)” value (Caenorhabditis elegans; Day 5) was 27 ppm. The “LC50 (ppm)” value (Caenorhabditis elegans; Day 7) was 3 ppm, the mortality at 100 ppm (M. incognita) was 20% and the “LC50 (ppm)” value (Meloidogyne incognita; Day 2) was 356 ppm. The “LC50 (ppm)” value (Meloidogyne incognita; Day 3) was 36 ppm, the “LC50 (ppm)” value (Meloidogyne incognita; Day 5) was 20 ppm and the “LC50 (ppm)” value (Meloidogyne incognita; Day 7) was 4 ppm. The mortality at 50 ppm (Meloidogyne incognita; [1]) was 9%, the mortality at 50 ppm (Meloidogyne incognita; 24 hr, read-out: Mortality (%)) was 11% and the mortality at 50 ppm (Meloidogyne incognita; [2]) was 36%. For the same molecule, the mortality at 50 ppm (Meloidogyne incognita; 48 hr, read-out: Mortality (%)) was 39%, the mortality at 50 ppm (Meloidogyne incognita; [3]) was 56% and the mortality at 50 ppm (Meloidogyne incognita; 72 hr, read-out: Mortality (%)) was 59%. It also gave a mortality at 50 ppm (Meloidogyne incognita; [4]) of 73%, a mortality at 50 ppm (Meloidogyne incognita; [5]) of 75% and a mortality at 50 ppm (Meloidogyne incognita; [6]) of 98%. It also gave a mortality at 50 ppm (Meloidogyne incognita; [7]) of 98%, a mortality at 100 ppm (Meloidogyne incognita; [1]) of 16% and a mortality at 100 ppm (Meloidogyne incognita; 24 hr, read-out: Mortality (%)) of 18%. The mortality at 100 ppm (Meloidogyne incognita; [2]) was 39%, the mortality at 100 ppm (Meloidogyne incognita; 48 hr, read-out: Mortality (%)) was 41% and the mortality at 100 ppm (Meloidogyne incognita; [3]) was 61%. The mortality at 100 ppm (Meloidogyne incognita; 72 hr, read-out: Mortality (%)) was 64%, the mortality at 100 ppm (Meloidogyne incognita; [4]) was 84% and the mortality at 100 ppm (Meloidogyne incognita; [5]) was 85%. For the same molecule, the mortality at 100 ppm (Meloidogyne incognita; [6]) was 99%, the mortality at 100 ppm (Meloidogyne incognita; [7]) was 99% and the mortality at 200 ppm (Meloidogyne incognita; [1]) was 19%. For the same molecule, the mortality at 200 ppm (Meloidogyne incognita; 24 hr, read-out: Mortality (%)) was 21%, the mortality at 200 ppm (Meloidogyne incognita; [2]) was 43% and the mortality at 200 ppm (Meloidogyne incognita; 48 hr, read-out: Mortality (%)) was 45%. The mortality at 200 ppm (Meloidogyne incognita; [3]) was 67%, the mortality at 200 ppm (Meloidogyne incognita; 72 hr, read-out: Mortality (%)) was 69% and the mortality at 200 ppm (Meloidogyne incognita; [4]) was 90%. It also gave a mortality at 200 ppm (Meloidogyne incognita; [5]) of 91%, a mortality at 200 ppm (Meloidogyne incognita; [6]) of 100% and a mortality at 200 ppm (Meloidogyne incognita; [7]) of 100%. For the same molecule, the mortality at 300 ppm (Meloidogyne incognita; [1]) was 20%, the mortality at 300 ppm (Meloidogyne incognita; 24 hr, read-out: Mortality (%)) was 22% and the mortality at 300 ppm (Meloidogyne incognita; [2]) was 46%. The mortality at 300 ppm (Meloidogyne incognita; 48 hr, read-out: Mortality (%)) was 48%, the mortality at 300 ppm (Meloidogyne incognita; [3]) was 77% and the mortality at 300 ppm (Meloidogyne incognita; 72 hr, read-out: Mortality (%)) was 79%. The mortality at 300 ppm (Meloidogyne incognita; [4]) was 96%, the mortality at 300 ppm (Meloidogyne incognita; [5]) was 96% and the mortality at 300 ppm (Meloidogyne incognita; [6]) was 100%. For the same molecule, the mortality at 300 ppm (Meloidogyne incognita; [7]) was 100%, the mortality at 400 ppm (Meloidogyne incognita; [1]) was 22% and the mortality at 400 ppm (Meloidogyne incognita; 24 hr, read-out: Mortality (%)) was 24%. The mortality at 400 ppm (Meloidogyne incognita; [2]) was 55%, the mortality at 400 ppm (Meloidogyne incognita; 48 hr, read-out: Mortality (%)) was 57% and the mortality at 400 ppm (Meloidogyne incognita; [3]) was 78%. The mortality at 400 ppm (Meloidogyne incognita; 72 hr, read-out: Mortality (%)) was 89%, the mortality at 400 ppm (Meloidogyne incognita; [4]) was 100% and the mortality at 400 ppm (Meloidogyne incognita; [5]) was 100%. For the same molecule, the mortality at 400 ppm (Meloidogyne incognita; [6]) was 100%, the mortality at 400 ppm (Meloidogyne incognita; [7]) was 100% and the “LC50 (ppm)” value (Drosophila melanogaster; 48 hr) was 125.86 ppm. The “LC50 (ppm)” value (Drosophila melanogaster; 72 hr) was 72.82 ppm.
